According to patent US20260007601A1, “IONIZABLE CATIONIC LIPID COMPOUND AND COMPOSITION FOR DELIVERING NUCLEIC ACID AND USE THEREOF” (BEIJING YOUCAREKECHUANG PHARMACEUTICAL TECHNOLOGY CO., LTD., priority 2023, published 2026):

What was measured:
[1] = Particle size and polydispersity index (PDI) of nanolipid particles, dynamic light scattering; format: physicochemical; conditions: LNP formulation prepared from the named cationic lipid, 25° C
Experimental: The particle size and polydispersity index (PDI) were determined by dynamic light scattering method using a Malvern laser particle size analyzer. 10 μL of liposome solution was diluted to 1 mL with RNase-free deionized water and added to a sample pool. Each sample was measured three times. The measurement conditions were: 90° scattering angle, 25° C.

[2] = Encapsulation rate, drug loading concentration and total RNA concentration detection (RiboGreen); format: physicochemical; conditions: LNP formulation of the named lipid
From the text: Encapsulation rate is a key quality attribute of liposomes. It refers to the percentage of drug content encapsulated in the lipid bilayer to the total amount of drug added, which can reflect the degree of drug encapsulation in liposomes. The Chinese Pharmacopoeia stipulates that the encapsulation rate should usually not be less than 80%.
The drug loading capacity is the ratio of the amount of drug in the liposome to the total amount of drug and carrier in the liposome. The drug loading capacity directly affects the clinical application dose of the drug, so the larger the drug loading capacity, the more it can meet clinical needs. The drug loading concentration is proportional to the drug loading capacity, and the relative proportion of the drug loading concentration can represent the relative proportion of the drug loading capacity. The relative proportion of the total RNA concentration can represent the relative proportion of the amount of mRNA carried by the LNP formulation.
1×TE buffer, 0.1% Triton X-100 buffer, and RiboGreen reagent (1:200) and mRNA standard stock solution were prepared.
An appropriate amount of sample was taken and added to an appropriate amount of 1×TE buffer, which was diluted to a solution containing about 2.8 μg of the test sample per 1 mL. Then the sample was added to a 96-well plate, where 50 μL of the diluted test sample or mRNA standard stock solution was added to each well, and then added with 1×TE buffer and 0.1% Triton X-100 buffer. The samples were incubated at 37° C. for 10 minutes, and 100 μL of RiboGreen reagent (1:200) was added to each well of the 96-well plate. The plate was centrifuged, and read using an ELISA reader, and the data was processed.

[3] = tested on: 293T cells; assay: Fluorescence detection of Fluc-mRNA (cell transfection efficiency of LNP formulations); format: cell-based; conditions: for Relative light unit (RLU): LNP containing 0.3 μg Fluc-mRNA, 24 hours; for Multiples of values that equivalent to YK-201: RLU of YK-201 / RLU of the named lipid; for Multiples of values that equivalent to YK-202: RLU of YK-202 / RLU of the named lipid; for Multiples of values that equivalent to YK-209: RLU of YK-209 / RLU of the named lipid; for Ratio relative to SM-102: RLU of the named lipid / RLU of SM-102, times that of SM-102
Experimental: (§1) Cell recovery and passaging: 293T cells were recovered and cultured in culture dishes to the required cell number.
(§2) Plating: The cells in the culture dish were digested, counted, plated in a 96-well plate at 10,000 cells per well, or in a 12-well plate at 150,000 cells per well, and cultured overnight until the cells adhered to the wall.
(§3) Cell recovery and passage: The method was the same as in Example 3.
(§4) Plating: The method was the same as Example 3.
The LNP formulation containing 0.3 μg Fluc-mRNA (prepared according to Example 4, the LNP formulation carrier components were cationic lipids, neutral lipids, structured lipids and polymer-conjugated lipids at a molar ratio of 49:10:39.5:1.5, and the cationic lipids were cationic lipids listed in Table 1) was added to the cell culture medium of a 96-well plate, and cultured for 24 hours. After that, the corresponding reagents were added according to the instructions of the Gaussia Luciferase Assay Kit, and the fluorescence expression intensity of each well was detected by the IVIS fluorescence detection system. This experiment verified the transfection efficiency of the LNP formulation in the cell, and the specific detection results are shown in Tables 6-9.

[4] = tested on: 293T cells; assay: Cell survival rate assay (CCK-8); format: cell-based; conditions: LNP containing 1.5 μg Fluc-mRNA, 24 hours, CCK-8
Experimental: as §1, §2, §3, §4
The LNP formulations containing 1.5 μg Fluc-mRNA (prepared according to Example 4, the LNP formulation carrier components are cationic lipids, neutral lipids, structured lipids and polymer-conjugated lipids at a molar ratio of 49:10:39.5:1.5, wherein the cationic lipids are the cationic lipids listed in Table 1) and the Lipofectamine 3000 formulation were added to the cell culture medium of the 96-well plate, and the culture was continued for 24 hours. Then, 10 μL of CCK-8 solution was added to each well, and the culture plate was incubated in the incubator for 1 hour, and the absorbance at 450 nm was measured by a microplate reader.

| SMILES | PDI [1] [%] | Particle size [1] [nm] | Drug loading concentration [2] [µg/mL] | Encapsulation rate [2] [%] | Total RNA concentration [2] [µg/mL] | Relative light unit (RLU) [3] [RLU] | Multiples of values that equivalent to YK-201 [3] | Multiples of values that equivalent to YK-202 [3] | Multiples of values that equivalent to YK-209 [3] | Ratio relative to SM-102 [3] | Cell survival rate [4] [%] |
| --- | --- | --- | --- | --- | --- | --- | --- | --- | --- | --- | --- |
| CCCCCCCCC(CCCCCCCC)COC(=O)CCCCCN(CCCCCC(=O)OCC(CCCCCCCC)CCCCCCCC)CCN(CCO)CCO [YK-212, bis(2-octyldecyl)-6,6-((2-(bis(2-hydroxyethyl)amino)ethyl)azadialkyl)dihexanoate] | 19.2 | 172 | 40.25 | 94.4 | 42.62 | 3910590 | 7.28 | 7.66 | 5.39 | 2.35 | 35.26 |
| CCCCCCCCC(CCCCCCCC)OC(=O)CCCCCN(CCCCCC(=O)OC(CCCCCCCC)CCCCCCCC)CCN(CCO)CCO [YK-213, bis(heptadecan-9-yl)-6,6-((2-(bis(2-hydroxyethyl)amino)ethyl)azadialkyl)dihexanoate] | 17.6 | 207 | 34.70 | 82.0 | 42.34 | 1364505 | 20.87 | 21.95 | 15.43 | 0.82 | 41.44 |
| CCCCCCC(CCCCCC)CCOC(=O)CCCCCN(CCCCCC(=O)OCCC(CCCCCC)CCCCCC)CCN(CCO)CCO [YK-214, bis(3-hexylnonyl)-6,6-((2-(bis(2-hydroxyethyl)amino)ethyl)azadialkyl)dihexanoate] | 31.5 | 203 | 38.16 | 96.7 | 39.46 | 4582178 | 6.22 | 6.54 | 4.60 | 2.75 | 25.58 |
| CCCCCCCCCCOC(=O)CCCN(CCCCCC(=O)OCC(CCCCCCCC)CCCCCCCC)CCN(C)CCOC [YK-216] | 13.7 | 219 | 27.36 | 61.3 | 44.64 | 2280300 | 12.49 | 13.14 | 9.24 | 1.37 | 45.80 |
| CCCCCCCCCCOC(=O)CCCN(CCCCCC(=O)OCC(CCCCCCCC)CCCCCCCC)CCOC(=O)SCCCN(C)C [YK-218, 2-octyldecyl-11-(4-(decyloxy)-4-oxobutyl)-2-methyl-7-oxo-8-oxo-6-thio-2,11-diazaheptane-17-carboxylate] | 17.2 | 222 | 36.50 | 78.2 | 46.66 | 607080 | 46.92 | 49.35 | 34.69 | 0.36 | 72.84 |
| CCCCCCCCCCOC(=O)CCCN(CCCCCC(=O)OCC(CCCCCCCC)CCCCCCCC)C(=O)SCCCN(C)C [YK-219] | 22.4 | 217 | 30.31 | 64.2 | 47.23 | 1505963 | 18.91 | 19.89 | 13.98 | 0.90 | 58.61 |
| CCCCCCCCCCOC(=O)CCCN(CCCCCC(=O)OCCC(CCCCCC)CCCCCC)C(=O)SCCCN(C)C [YK-220] | 26.6 | 221 | 25.27 | 57.5 | 43.92 | 216398 | 131.62 | 138.44 | 97.32 | 0.13 | 58.99 |
| CCCCCCCCCCOC(=O)CCCN(CCCCCC(=O)OCC(CCCCCCCC)CCCCCCCC)CCN(C)CCNC [YK-221] | 21.9 | 237 | 31.46 | 95.4 | 32.98 | 27960 | 1018.69 | 1071.44 | 753.17 | 0.02 | 20.95 |
| CCCCCCCCCCCOC(=O)CCCCCN(CCCCCCCC(=O)OC(CCCCCCCC)CCCCCCCC)CCN(C)CCNC [YK-222] | 30.4 | 218 | 25.78 | 94.0 | 27.43 | 606360 | 46.97 | 49.41 | 34.73 | 0.36 | 33.75 |
| CCCCCCCCC(CCCCCCCC)OC(=O)CCCCCN(CCCCCC(=O)OC(CCCCCCCC)CCCCCCCC)CCN(C)CCNC [YK-224] | 30.3 | 185 | 38.81 | 98.7 | 39.31 | 88020 | 323.59 | 340.35 | 239.25 | 0.05 | 23.47 |
| CCCCCCC(CCCCCC)CCOC(=O)CCCCCN(CCCCCC(=O)OCCC(CCCCCC)CCCCCC)CCN(C)CCNC [YK-225] | 19.3 | 222 | 38.74 | 98.0 | 39.53 | 26145 | 1089.41 | 1145.82 | 805.46 | 0.02 | 43.41 |
